Results taken from BindingDB's records for doi:10.1016/j.bmcl.2021.128353 (Novira Therapeutics, 2021).

Assay: Modulation of capsid assembly in HBV infected in human HepG2.2.15 cells assessed as inhibition of viral DNA replication preincubated for 3 days followed by replacement with fresh medium containing compound and measured after 3 days by QuantiGene assay

Structure (SMILES)	EC50
CCOC(=O)c1n[nH]c2c1CN(C(=O)Nc1cccc(Cl)c1)CC2	0.26 µM
CCN(C)C(=O)c1n[nH]c2c1CN(C(=O)Nc1cccc(Cl)c1)CC2	0.41 µM
CONC(=O)c1n[nH]c2c1CN(C(=O)Nc1cccc(Cl)c1)CC2	0.4 µM
O=C(Nc1cccc(Cl)c1)N1CCc2[nH]nc(C(=O)N3CCCCO3)c2C1	0.1 µM
CN(OC1COC1)C(=O)c1n[nH]c2c1CN(C(=O)Nc1cccc(Cl)c1)CC2	0.024 µM
CN(OC1CCCOC1)C(=O)c1n[nH]c2c1CN(C(=O)Nc1cccc(Cl)c1)CC2 (centres undefined)	0.37 µM
C[C@@H]1Cc2nn3c(c2CN1C(=O)Nc1ccc(F)c(Cl)c1)C(=O)N(C)O[C@@H](CO)C3	0.004 µM
C[C@@H]1Cc2nn3c(c2CN1C(=O)Nc1ccc(F)c(C(F)(F)F)c1)C(=O)N(C)O[C@@H](CO)C3	0.0027 µM
Cc1cc(NC(=O)N2Cc3c(nn4c3C(=O)N(C)O[C@@H](CO)C4)C[C@H]2C)ccc1F	0.0034 µM
C[C@@H]1Cc2nn3c(c2CN1C(=O)Nc1ccc(F)c(C#N)c1)C(=O)N(C)O[C@@H](CO)C3	0.0073 µM
C[C@@H]1Cc2nn3c(c2CN1C(=O)Nc1ccc(F)c(C#N)c1)C(=O)N(C)OCC3	0.0053 µM
C[C@@H]1Cc2nn3c(c2CN1C(=O)Nc1ccc(F)c(Cl)c1)C(=O)N(C)O[C@@H](CN(C)C)C3	0.021 µM
C[C@@H]1Cc2nn3c(c2CN1C(=O)Nc1ccc(F)c(C#N)c1)C(=O)N(C)O[C@@H](C(=O)N(C)CC(F)F)C3	0.0053 µM
C[C@@H]1Cc2nn3c(c2CN1C(=O)Nc1ccc(F)c(C#N)c1)C(=O)N(C)O[C@@H](COCC(F)F)C3	0.005 µM
C[C@@H]1Cc2nn3c(c2CN1C(=O)Nc1ccc(F)c(C#N)c1)C(=O)N(C)O[C@@H](CF)C3	0.006 µM
CN1O[C@@H](CO)Cn2nc3c(c2C1=O)CN(C(=O)Nc1ccc(F)c(Cl)c1)CC3	0.004 µM
CN1O[C@H](CO)Cn2nc3c(c2C1=O)CN(C(=O)Nc1ccc(F)c(Cl)c1)CC3	0.015 µM

Structure (SMILES)	EC50
CON(C)C(=O)c1n[nH]c2c1CN(C(=O)Nc1cccc(Cl)c1)[C@@H](C)C2	0.031 µM
CON(C)C(=O)c1n[nH]c2c1CN(C(=O)Nc1cccc(Cl)c1)[C@H](C)C2	0.33 µM
C[C@@H]1Cc2nn3c(c2CN1C(=O)Nc1ccc(F)c(Cl)c1)C(=O)N(C)O[C@H](CO)C3	0.004 µM
C[C@H]1Cc2nn3c(c2CN1C(=O)Nc1ccc(F)c(Cl)c1)C(=O)N(C)O[C@H](CO)C3	0.216 µM
C[C@H]1Cc2nn3c(c2CN1C(=O)Nc1ccc(F)c(Cl)c1)C(=O)N(C)O[C@@H](CO)C3	0.054 µM
CON(C)C(=O)c1n[nH]c2c1CN(C(=O)Nc1cccc(Cl)c1)CC2 [US10189835, Compound 434]	0.054 µM
CCCC(=O)c1n[nH]c2c1CN(C(=O)Nc1cccc(Cl)c1)CC2 [US10189835, Compound 561]	0.068 µM
CCN(OC)C(=O)c1n[nH]c2c1CN(C(=O)Nc1cccc(Cl)c1)CC2 [US10189835, Compound 594]	0.09 µM
CON(C(=O)c1n[nH]c2c1CN(C(=O)Nc1cccc(Cl)c1)CC2)C(C)C [US10189835, Compound 595]	0.21 µM
CCON(C)C(=O)c1n[nH]c2c1CN(C(=O)Nc1cccc(Cl)c1)CC2 [US10189835, Compound 599]	0.063 µM
CC(C)ON(C)C(=O)c1n[nH]c2c1CN(C(=O)Nc1cccc(Cl)c1)CC2 [US10189835, Compound 600]	0.057 µM
O=C(Nc1cccc(Cl)c1)N1CCc2[nH]nc(C(=O)N3CCCO3)c2C1 [US10189835, Compound 699]	0.12 µM
CCCON(C)C(=O)c1n[nH]c2c1CN(C(=O)Nc1cccc(Cl)c1)CC2 [US10189835, Compound 795]	0.21 µM
CN(OCCO)C(=O)c1n[nH]c2c1CN(C(=O)Nc1cccc(Cl)c1)CC2 [US10189835, Compound 796]	0.155 µM
CN(OC1CCC1)C(=O)c1n[nH]c2c1CN(C(=O)Nc1cccc(Cl)c1)CC2 [US10189835, Compound 805]	0.097 µM
CN(OC1CCOC1)C(=O)c1n[nH]c2c1CN(C(=O)Nc1cccc(Cl)c1)CC2 (centres undefined) [US10189835, Compound 910]	0.3 µM
CN1CC(ON(C)C(=O)c2n[nH]c3c2CN(C(=O)Nc2cccc(Cl)c2)CC3)C1 [US10189835, Compound 912]	0.2 µM
